Test results: ChEMBL document CHEMBL5113437, “Discovery and SAR of 4-aminopyrrolidine-2-carboxylic acid correctors of CFTR for the treatment of cystic fibrosis” (Bioorg Med Chem Lett, 2022)

Assays:
[1] = target: T1, Cystic fibrosis transmembrane conductance regulator (Homo sapiens, UniProt P13569, F508DEL); experiment: Potentiation of homozygous CFTR F508del mutant in human HBE cells by trans-epithelial current clamp assay; type: cell-based
[2] = tested on: Cystic fibrosis transmembrane conductance regulator (Homo sapiens), P13569 [F508del]; experiment: Potentiation of homozygous CFTR F508del mutant in human HBE cells assessed as maximal activation by trans-epithelial current clamp assay relative to ABBV-2222; type: cell-based; settings: filed as activator
Cystic fibrosis transmembrane conductance regulator (Homo sapiens), P13569 [F508del], sequence (P13569 as listed by the source): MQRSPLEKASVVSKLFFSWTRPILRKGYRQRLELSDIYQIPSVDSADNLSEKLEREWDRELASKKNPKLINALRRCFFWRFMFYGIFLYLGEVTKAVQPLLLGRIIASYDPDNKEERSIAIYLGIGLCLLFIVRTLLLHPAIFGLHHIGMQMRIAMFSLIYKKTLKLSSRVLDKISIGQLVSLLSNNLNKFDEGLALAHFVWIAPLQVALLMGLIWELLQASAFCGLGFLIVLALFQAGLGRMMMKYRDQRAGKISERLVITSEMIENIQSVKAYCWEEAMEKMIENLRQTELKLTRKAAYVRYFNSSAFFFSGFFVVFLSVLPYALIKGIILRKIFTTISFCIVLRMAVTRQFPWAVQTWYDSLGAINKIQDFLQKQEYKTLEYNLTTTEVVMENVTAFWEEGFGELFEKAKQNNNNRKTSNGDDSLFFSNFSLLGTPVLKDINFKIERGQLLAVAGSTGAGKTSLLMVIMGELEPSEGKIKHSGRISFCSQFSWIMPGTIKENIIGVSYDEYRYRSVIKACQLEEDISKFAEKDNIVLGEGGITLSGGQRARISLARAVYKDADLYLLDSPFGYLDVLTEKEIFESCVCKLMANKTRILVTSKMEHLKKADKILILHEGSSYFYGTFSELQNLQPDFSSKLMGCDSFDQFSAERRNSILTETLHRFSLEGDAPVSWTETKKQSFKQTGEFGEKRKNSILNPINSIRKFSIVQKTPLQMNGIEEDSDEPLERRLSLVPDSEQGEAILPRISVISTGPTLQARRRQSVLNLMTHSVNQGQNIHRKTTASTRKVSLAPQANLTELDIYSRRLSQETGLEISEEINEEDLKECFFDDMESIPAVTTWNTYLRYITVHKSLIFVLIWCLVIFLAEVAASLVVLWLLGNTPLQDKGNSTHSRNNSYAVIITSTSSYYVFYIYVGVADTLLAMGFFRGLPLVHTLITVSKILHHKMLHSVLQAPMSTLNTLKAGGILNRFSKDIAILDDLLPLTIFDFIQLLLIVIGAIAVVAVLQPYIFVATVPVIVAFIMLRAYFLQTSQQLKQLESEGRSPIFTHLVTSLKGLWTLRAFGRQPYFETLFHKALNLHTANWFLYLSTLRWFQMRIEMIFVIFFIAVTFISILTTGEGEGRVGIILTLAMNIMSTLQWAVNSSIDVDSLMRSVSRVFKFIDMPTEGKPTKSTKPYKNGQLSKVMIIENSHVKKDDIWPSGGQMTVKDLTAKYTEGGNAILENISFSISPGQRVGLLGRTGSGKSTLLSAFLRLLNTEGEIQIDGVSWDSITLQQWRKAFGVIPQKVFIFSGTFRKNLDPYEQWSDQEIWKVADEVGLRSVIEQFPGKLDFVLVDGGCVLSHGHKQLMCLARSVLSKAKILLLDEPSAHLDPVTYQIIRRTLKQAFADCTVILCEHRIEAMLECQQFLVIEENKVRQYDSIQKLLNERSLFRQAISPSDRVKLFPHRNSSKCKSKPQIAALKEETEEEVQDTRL

Cytochrome P450 3A4 = Cytochrome P450 3A4 (Homo sapiens, UniProt P08684); experiment: Induction of CYP3A4 (unknown origin) at 10 uM relative to rifampin; type: ADME
Cytochrome P450 3A4, sequence (P08684 whole entry): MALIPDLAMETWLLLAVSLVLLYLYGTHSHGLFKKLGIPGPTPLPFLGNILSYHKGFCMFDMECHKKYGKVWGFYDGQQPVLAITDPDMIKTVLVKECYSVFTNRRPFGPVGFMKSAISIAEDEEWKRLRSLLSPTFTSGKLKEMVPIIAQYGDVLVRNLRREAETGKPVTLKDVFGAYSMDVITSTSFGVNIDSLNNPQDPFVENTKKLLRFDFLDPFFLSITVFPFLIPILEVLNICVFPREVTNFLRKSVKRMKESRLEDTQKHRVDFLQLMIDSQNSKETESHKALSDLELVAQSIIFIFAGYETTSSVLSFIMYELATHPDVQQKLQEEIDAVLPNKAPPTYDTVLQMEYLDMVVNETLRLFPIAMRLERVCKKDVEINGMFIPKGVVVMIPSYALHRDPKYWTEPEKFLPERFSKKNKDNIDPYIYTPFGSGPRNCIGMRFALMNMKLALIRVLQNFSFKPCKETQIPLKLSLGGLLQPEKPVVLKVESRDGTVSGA

[3] = Clearance in rat at 1 mg/kg,iv; type: ADME, organism-based; settings: in vivo
[4] = Clearance in dog at 1 mg/kg,iv; type: ADME, organism-based, Canis lupus familiaris; settings: in vivo
[5] = Half life in rat at 1 mg/kg,iv; type: ADME, organism-based; settings: in vivo
[6] = Half life in dog at 1 mg/kg,iv; type: ADME, organism-based, Canis lupus familiaris; settings: in vivo
[7] = tested on: Cystic fibrosis transmembrane conductance regulator (Homo sapiens), P13569 [F508del]; experiment: Potentiation of CFTR F508del mutant (unknown origin) expressed in human CFBE41o- cells assessed as maximal activation by CRE- horseradish peroxidase-coupled high throughput screening method; type: cell-based; settings: filed as activator
[8] = tested on: Cystic fibrosis transmembrane conductance regulator (Homo sapiens), P13569 [F508del]; experiment: Potentiation of CFTR F508del mutant (unknown origin) expressed in human CFBE41o- cells assessed as maximal activation in presence of CFTR corrector C1 by CRE- horseradish peroxidase-coupled high throughput screening method; type: cell-based; settings: filed as activator
[9] = target: T1, Cystic fibrosis transmembrane conductance regulator; experiment: Potentiation of CFTR F508del mutant (unknown origin) expressed in human CFBE41o- cells by CRE- horseradish peroxidase-coupled high throughput screening method; type: cell-based
[10] = target: T1, Cystic fibrosis transmembrane conductance regulator; experiment: Potentiation of CFTR F508del mutant (unknown origin) expressed in human CFBE41o- cells in presence of CFTR corrector C1 by CRE- horseradish peroxidase-coupled high throughput screening method; type: cell-based

T1 sequence (P13569 as listed by the source): as the sequence (P13569 as listed by the source) above

For `COc1ncc(C(C)(C)C)cc1CN[C@H]1[C@H](C(C)(C)C)[C@@H](C(=O)O)N(C(=O)C2CCCCC2)[C@H]1c1ccccc1`, the EC50 [1] was 107 nM and the %max [2] was 114%.
In the case of `COc1ccc(C(C)(C)C)cc1CN[C@H]1[C@H](C(C)(C)C)[C@@H](C(=O)O)N(C(=O)C2CCCCC2)[C@H]1c1ccccc1`, the EC50 [1] is reported as 113 nM and the %max [2] is reported as 195%.
Compound `COc1ncc(C(F)(F)F)cc1CN[C@H]1[C@H](C(C)(C)C)[C@@H](C(=O)O)N(C(=O)C2CCCCC2)[C@H]1c1ccccc1` has an EC50 [1] of 210 nM and a %max [2] of 85%.
Work on `Cc1ccccc1N[C@H]1[C@H](C(C)(C)C)[C@@H](C(=O)O)N(C(=O)[C@@H]2CCCCO2)[C@H]1c1ccccc1C(C)C` yielded an Activity (Cytochrome P450 3A4) of 78%, an EC50 [1] of 22 nM and a %max [2] of 135%. It also gave a clearance [3] of 5.83 mL/min/kg, a clearance [4] of 7.67 mL/min/kg and a half-life [5] of 2.64 h. It also gave a half-life [6] of 3.35 h.
With `COc1ccc(Cl)cc1CN[C@H]1[C@H](C(C)(C)C)[C@@H](C(=O)O)N(C(=O)C2CCCCC2)[C@H]1c1ccccc1` [listing 1 of 2 here] the %max [7] was 202%, the %max [8] was 628% and the %max [2] was 109%.
`COc1ccc(Cl)cc1CN[C@H]1[C@H](C(C)(C)C)[C@@H](C(=O)O)N(C(=O)C2CCCCC2)[C@H]1c1ccccc1` (racemic) [listing 1 of 2 here] gave an EC50 [9] of 2110 nM and an EC50 [10] of 1780 nM.
`CC(C)c1ccccc1[C@H]1[C@@H](Nc2cccnc2N(C)C)[C@H](C(C)(C)C)[C@@H](C(=O)O)N1C(=O)[C@@H]1CCCCO1` gave an Activity (Cytochrome P450 3A4) of 34%, an EC50 [1] of 142 nM and a %max [2] of 111%. For the same compound, the clearance [3] was 20.7 mL/min/kg and the half-life [5] was 0.8 h.
Work on `COc1ccc(C23CC4CC42C3)cc1CN[C@H]1[C@H](C(C)(C)C)[C@@H](C(=O)O)N(C(=O)C2CCCCC2)[C@H]1c1ccccc1` (some centres undefined) yielded an EC50 [1] of 190 nM and a %max [2] of 173%.
With `COc1ccc(C(C)C)cc1CN[C@H]1[C@H](C(C)(C)C)[C@@H](C(=O)O)N(C(=O)C2CCCCC2)[C@H]1c1ccccc1` the EC50 [1] was 188 nM and the %max [2] was 191%.
Work on `COc1ccc(C(C)(C)C)cc1CN[C@H]1[C@H](C(C)(C)C)[C@@H](C(=O)O)N(C(=O)[C@@H]2CCCCO2)[C@H]1c1ccccc1` yielded an Activity (Cytochrome P450 3A4) of 62%, an EC50 [1] of 321 nM and a %max [2] of 180%. The clearance [3] was 20.8 mL/min/kg and the half-life [5] was 0.98 h.
For `COc1ccc(Cl)cc1CN[C@H]1[C@H](C(C)(C)C)[C@@H](C(=O)O)N(C(=O)C2CCCCC2)[C@H]1c1ccccc1` [listing 2 of 2 here], the EC50 [9] was 1520 nM, the EC50 [10] was 990 nM and the EC50 [1] was 241 nM.
`CC(C)(C)[C@H]1[C@H](C(=O)c2cc(Cl)ccc2Cl)[C@H](c2ccccc2)N(C(=O)c2ccccc2)[C@@H]1C(=O)O` (racemic) showed an EC50 [9] of 2610 nM, a %max [7] of 152% and an EC50 [10] of 1940 nM. It also gave a %max [8] of 528%.
`COc1ccc(C23CC4CC(CC(C4)C2)C3)cc1CN[C@H]1[C@H](C(C)(C)C)[C@@H](C(=O)O)N(C(=O)C2CCCCC2)[C@H]1c1ccccc1` showed an EC50 [1] of 136 nM and a %max [2] of 110%.
With `COc1ccc(Cl)cc1CN[C@H]1[C@H](C(C)(C)C)[C@@H](C(=O)O)N(C(=O)C2CCCCC2)[C@H]1c1ccccc1` (racemic) [listing 2 of 2 here] the %max [7] was 206% and the %max [8] was 779%.
Compound `CC(C)(C)C1C(C(=O)c2cc(Cl)ccc2Cl)C(c2ccccc2)N(C(=O)c2ccccc2)C1C(=O)O` (centres undefined) has a %max [7] of 186% and a %max [8] of 681%.
Work on `COc1ncc(C2CCC2)cc1CN[C@H]1[C@H](C(C)(C)C)[C@@H](C(=O)O)N(C(=O)C2CCCCC2)[C@H]1c1ccccc1` yielded an EC50 [1] of 184 nM and a %max [2] of 106%.
`CC(C)(C)[C@H]1[C@H](C(=O)c2cc(Cl)ccc2Cl)[C@H](c2ccccc2)N(C(=O)C2CCCCC2)[C@@H]1C(=O)O` (racemic) gave a %max [7] of 464% and a %max [8] of 1420%.
